Measured values: the supplement of paper PMC10307832

Tests used:
Assay in all cases: relative viability (nuclei count vs DMSO), 5 days (fraction); higher = more cells survive
Kobe2602 + Palbociclib = compound: C1=CC(=CC=C1NC(=S)NNC2=C(C=C(C=C2[N+](=O)[O-])C(F)(F)F)[N+](=O)[O-])F [Kobe2602] + CC(=O)c1c(C)c2cnc(Nc3ccc(N4CCNCC4)cn3)nc2n(C2CCCC2)c1=O [Palbociclib] (partner 0.5 µM)
Summary of the method: (§1)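 One day after seeding in 1536-well plates, lung cancer cell lines were dosed by pin tool. Dosing was either single-drug or a fixed anchor-drug dose plus five library-drug doses (not always all listed) in √10 steps. After 5 days, nuclei were stained in one fix-and-stain step and counted on 4× images, and relative viability is the nuclei count of treated wells over that of vehicle wells, given as the median of duplicate plates.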

[1] = compound: COc1cc2nccc(Oc3ccc(NC(=O)C4(C(=O)Nc5ccc(F)cc5)CC4)cc3)c2cc1OC [Cabozantinib] + C[C@]1(O)C[C@@H](c2nc(-c3ccc4ccc(-c5ccccc5)nc4c3)c3c(N)nccn32)C1 [Linsitinib] (partner 1 µM)
Summary of the method: as §1

Kobe2602 + Bortezomib = compound: C1=CC(=CC=C1NC(=S)NNC2=C(C=C(C=C2[N+](=O)[O-])C(F)(F)F)[N+](=O)[O-])F [Kobe2602] + CC(C)C[C@H](NC(=O)[C@H](Cc1ccccc1)NC(=O)c1cnccn1)B(O)O [Bortezomib] (partner 0.002 µM)
Summary of the method: as §1

Zosuquidar + OSI-027 = compound: O[C@@H](COc1cccc2ncccc12)CN1CCN([C@@H]2c3ccccc3[C@@H]3[C@H](c4ccccc42)C3(F)F)CC1 [Zosuquidar] + COc1cccc2cc(-c3nc([C@H]4CC[C@H](C(=O)O)CC4)n4ncnc(N)c34)[nH]c12 [OSI-027] (partner 0.5 µM)
Summary of the method: as §1

| Cell Line | relative viability (Kobe2602 + Palbociclib; first compound 0.2 µM) | relative viability (Kobe2602 + Palbociclib; first compound 0.6325 µM) | relative viability (Kobe2602 + Palbociclib; first compound 6.325 µM) | relative viability (Kobe2602 + Palbociclib; first compound 20 µM) | relative viability ([1]; first compound 0.06325 µM) | relative viability ([1]; first compound 0.2 µM) | relative viability ([1]; first compound 0.6325 µM) | relative viability ([1]; first compound 2 µM) | relative viability (Kobe2602 + Bortezomib; first compound 0.2 µM) | relative viability (Kobe2602 + Bortezomib; first compound 0.6325 µM) | relative viability (Kobe2602 + Bortezomib; first compound 2 µM) | relative viability (Kobe2602 + Bortezomib; first compound 6.325 µM) | relative viability (Kobe2602 + Bortezomib; first compound 20 µM) | relative viability (Zosuquidar + OSI-027; first compound 0.01 µM) | relative viability (Zosuquidar + OSI-027; first compound 0.03162 µM) | relative viability (Zosuquidar + OSI-027; first compound 0.1 µM) | relative viability (Zosuquidar + OSI-027; first compound 0.3162 µM) | relative viability (Zosuquidar + OSI-027; first compound 1 µM) | relative viability (Kobe2602 + Palbociclib; first compound 2 µM) | relative viability ([1]; first compound 0.02 µM) |
| --- | --- | --- | --- | --- | --- | --- | --- | --- | --- | --- | --- | --- | --- | --- | --- | --- | --- | --- | --- | --- |
| LCLC-97TM1 | 0.192 | 0.242 | 0.218 | 0.194 | 0.187 | 0.2 | 0.195 | 0.204 | 0.691 | 0.757 | 0.501 | 0.611 | 0.526 | 0.469 | 0.507 | 0.366 | 0.502 | 0.641 | – | – |
| LCLC-103H | 0.504 | 0.518 | 0.539 | 0.491 | 1.01 | 1.07 | 0.986 | 1.05 | 1.15 | 1.11 | 1.04 | 1.13 | 1.01 | 0.474 | 0.469 | 0.402 | 0.478 | 0.528 | 0.537 | 1.21 |
| LOU-NH91 | 0.475 | 0.5 | 0.526 | 0.529 | 1.09 | 0.537 | 0.939 | 0.95 | 0.518 | 0.454 | 0.469 | 0.478 | 0.527 | 0.623 | 0.664 | – | 0.781 | 0.713 | 0.537 | 0.928 |
| LU99A | 0.424 | 0.488 | 0.473 | 0.451 | 0.513 | 0.516 | 0.452 | 0.435 | 1.13 | 1.39 | 1.12 | 1.17 | 1.22 | 0.279 | 0.276 | 0.253 | 0.322 | 0.288 | 0.411 | 0.547 |
| LXF-289 | 0.585 | 0.597 | 0.556 | 0.62 | 0.966 | 0.971 | 0.983 | 0.94 | 0.968 | 1.05 | 0.955 | 0.97 | 0.988 | 0.744 | 0.862 | 0.741 | 0.856 | 0.915 | 0.59 | 1.02 |
| NCI-H23 | 0.559 | 0.568 | 0.522 | 0.544 | 0.687 | 0.561 | 0.473 | 0.48 | 1.01 | 1.11 | 0.973 | 0.998 | 1.09 | 0.644 | 0.636 | 0.525 | 0.705 | 0.641 | 0.446 | – |
| NCI-H322M | 0.477 | 0.535 | 0.491 | 0.559 | 1 | – | 0.96 | 0.954 | 1.23 | 1.23 | 1.28 | 1.2 | 1.21 | 0.529 | 0.67 | 0.485 | 0.66 | 0.575 | 0.485 | 0.95 |
| NCI-H441 | 0.236 | 0.198 | 0.237 | 0.221 | 0.721 | 0.686 | 0.46 | 0.418 | 0.549 | 0.582 | 0.527 | 0.575 | 0.687 | 0.667 | 0.666 | 0.519 | 0.828 | 0.585 | 0.243 | 0.53 |
| NCI-H460 | – | 0.22 | 0.145 | 0.176 | 0.89 | 0.83 | 0.805 | 0.797 | 0.99 | 1.09 | 1.09 | 1.21 | 1.05 | 0.674 | 0.725 | 0.522 | 0.788 | 0.694 | 0.184 | 0.941 |
| NCI-H520 | 0.239 | 0.217 | 0.231 | 0.205 | 1.05 | 0.938 | 0.796 | 0.815 | 0.612 | 0.713 | 0.511 | 0.593 | 0.537 | 0.266 | 0.294 | – | 0.237 | 0.236 | 0.249 | 0.923 |
| NCI-H647 | 0.334 | 0.467 | 0.425 | 0.409 | 1.53 | 1.33 | 1.12 | 1.11 | 0.911 | 1.22 | 0.889 | 0.882 | 0.938 | 0.64 | 0.63 | 0.552 | 0.886 | 0.723 | 0.373 | 1.28 |
| NCI-H650 | 0.31 | 0.357 | 0.402 | 0.372 | 1.02 | 1.05 | 0.971 | 0.774 | 0.882 | 1.07 | 0.676 | 0.912 | 0.956 | 0.514 | 0.477 | 0.433 | 0.553 | 0.576 | 0.344 | 0.846 |
| NCI-H661 | 0.405 | 0.416 | 0.414 | 0.475 | 0.503 | 0.557 | 0.455 | 0.413 | 0.936 | 0.83 | 0.78 | 0.796 | 0.755 | 0.654 | 0.67 | 0.596 | 0.714 | 0.695 | 0.428 | 0.621 |
| NCI-H727 | 0.665 | 0.703 | – | 0.704 | 0.231 | 0.282 | 0.22 | 0.309 | 0.901 | 0.883 | 0.83 | 0.885 | 0.851 | 0.622 | 0.538 | 0.343 | 0.783 | 0.705 | 0.635 | 0.323 |
| NCI-H838 | 0.196 | 0.215 | 0.246 | 0.199 | 1.04 | 1.1 | 0.943 | 0.821 | 0.748 | 0.924 | 0.99 | 0.749 | 0.725 | 0.411 | 0.323 | 0.303 | 0.38 | 0.41 | 0.199 | 1.03 |
| NCI-H1355 | 0.341 | 0.367 | 0.398 | 0.406 | 0.855 | 0.799 | 0.806 | 0.697 | 1.21 | 1.21 | 1.01 | 1.07 | 1.13 | 0.395 | 0.409 | 0.299 | 0.449 | 0.386 | 0.385 | 0.827 |
